According to patent US20250230193A1, “CYCLIC COMPOUND HAVING SELECTIVE KRAS INHIBITORY EFFECT ON HRAS AND NRAS” (CHUGAI SEIYAKU KABUSHIKI KAISHA, priority 2022, published 2025):
*1 amine or outer side, *2 acyl side, *3 side chain or, on linkers, in order; H or OH if unused. Where a SMILES comes first, the peptide text is derived from it. Bridges are numbered along the chain shown (N, C = ends). [ ]: non-standard residue; d: D form. The star is where a group is joined. hPhe(3-Cl-4-CF3) = N[C@@H](CCc1ccc(C(F)(F)F)c(Cl)c1)C(=O)O; X23 = CC(C)CN([C@@H](Cc1ccc(C(F)(F)F)cc1)C(=O)[*:2])[*:1]; X17 = CCCCN([C@@H](Cc1ccc(C(F)(F)F)cc1)C(=O)[*:2])[*:1]; X41 = Cc1ccc(C[C@@H](C(=O)[*:2])N(CCC(F)(F)F)[*:1])cc1; X27 = Cc1ccc(C[C@@H](C(=O)[*:2])N(CC2CCCCC2)[*:1])cc1; X29 = Cc1ccc(C[C@@H](C(=O)[*:2])N(CC2CCCC2)[*:1])cc1; X43 = Cc1ccc(C[C@@H](C(=O)[*:2])N(CC2CCC2)[*:1])cc1; X26 = COCCCN([C@@H](Cc1ccc(C)cc1)C(=O)[*:2])[*:1]; X48 = C=CCCN([C@@H](Cc1ccc(C)cc1)C(=O)[*:2])[*:1]; X12 = COCCN([C@@H](Cc1ccc(C)cc1)C(=O)[*:2])[*:1]; X50 = C=CCN([C@@H](Cc1ccc(C)cc1)C(=O)[*:2])[*:1]; NMeGly(cPent) = CN[C@H](C(=O)O)C1CCCC1; NMeD = CN[C@@H](CC(=O)O)C(=O)O; NMeL = CN[C@@H](CC(C)C)C(=O)O; Morpholide = C1CN(*)CCO1; NMeA = CN[C@@H](C)C(=O)O; Ac5c = NC1(C(=O)O)CCCC1; Aze = O=C(O)[C@@H]1CCN1; Sar = CNCC(=O)O

What was measured:
[1] = biological target: GDP-bound NRAS wild-type protein (Homo sapiens, UniProt P01111); experiment: Binding to NRAS by surface plasmon resonance (SPR), Single Cycle Kinetics; conditions: KD ratio NRAS/KRAS, SPR
[2] = biological target: GDP-bound HRAS wild-type protein (Homo sapiens, UniProt P01112); experiment: Binding to HRAS by surface plasmon resonance (SPR), Single Cycle Kinetics; conditions: KD ratio HRAS/KRAS, SPR
GDP-bound HRAS wild-type protein, sequence (P01112 whole entry): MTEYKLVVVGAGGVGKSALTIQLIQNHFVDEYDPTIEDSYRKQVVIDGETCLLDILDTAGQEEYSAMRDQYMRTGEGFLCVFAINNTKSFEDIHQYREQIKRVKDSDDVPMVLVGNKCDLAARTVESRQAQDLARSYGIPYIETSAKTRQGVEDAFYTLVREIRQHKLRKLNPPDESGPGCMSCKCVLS

GDP-bound NRAS wild-type protein, sequence (P01111 whole entry): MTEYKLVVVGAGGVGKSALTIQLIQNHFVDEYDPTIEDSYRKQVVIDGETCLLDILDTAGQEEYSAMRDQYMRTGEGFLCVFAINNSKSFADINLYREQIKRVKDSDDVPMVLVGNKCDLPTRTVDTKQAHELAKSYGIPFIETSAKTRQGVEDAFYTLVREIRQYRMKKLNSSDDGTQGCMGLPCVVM

SMILES	NRAS/KRAS (ratio of KD for GDP-bound NRAS wild-type to KD for KRAS) [1]	HRAS/KRAS (ratio of KD for GDP-bound HRAS wild-type to KD for KRAS) [2]
CC[C@H](C)[C@@H]1NC(=O)[C@H](CC(C)C)N(C)C(=O)C[C@@H](C(=O)N2CCOCC2)N(C)C(=O)[C@H](C2CCCC2)N(C)C(=O)C2(CCCC2)NC(=O)[C@@H]2CCCN2C(=O)[C@H](CCc2ccc(C(F)(F)F)c(Cl)c2)NC(=O)CN(C)C(=O)[C@H](Cc2ccc(C)cc2)N(CCC(F)(F)F)C(=O)[C@@H]2CCN2C(=O)[C@H](C)N(C)C1=O [PP0091] ([NMeL]I[NMeA][Aze][X41][Sar][hPhe(3-Cl-4-CF3)]P[Ac5c][NMeGly(cPent)][NMeD]-Morpholide; lactam N-11)	C (A compound having a KD ratio of 0.1 or more and less than 3 is denoted as C)	B (a compound having 3 or more and less than 10 is denoted as B)
CC[C@H](C)[C@@H]1NC(=O)[C@H](CC(C)C)N(C)C(=O)C[C@@H](C(=O)N2CCOCC2)N(C)C(=O)[C@H](C2CCCC2)N(C)C(=O)C2(CCCC2)NC(=O)[C@@H]2CCCN2C(=O)[C@H](CCc2ccc(C(F)(F)F)c(Cl)c2)NC(=O)CN(C)C(=O)[C@H](Cc2ccc(C)cc2)N(CCOC)C(=O)[C@@H]2CCN2C(=O)[C@H](C)N(C)C1=O [PP0092] ([NMeL]I[NMeA][Aze][X12][Sar][hPhe(3-Cl-4-CF3)]P[Ac5c][NMeGly(cPent)][NMeD]-Morpholide; lactam N-11)	C (A compound having a KD ratio of 0.1 or more and less than 3 is denoted as C)	C (A compound having a KD ratio of 0.1 or more and less than 3 is denoted as C)
CC[C@H](C)[C@@H]1NC(=O)[C@H](CC(C)C)N(C)C(=O)C[C@@H](C(=O)N2CCOCC2)N(C)C(=O)[C@H](C2CCCC2)N(C)C(=O)C2(CCCC2)NC(=O)[C@@H]2CCCN2C(=O)[C@H](CCc2ccc(C(F)(F)F)c(Cl)c2)NC(=O)CN(C)C(=O)[C@H](Cc2ccc(C)cc2)N(CCCOC)C(=O)[C@@H]2CCN2C(=O)[C@H](C)N(C)C1=O [PP0093] ([NMeL]I[NMeA][Aze][X26][Sar][hPhe(3-Cl-4-CF3)]P[Ac5c][NMeGly(cPent)][NMeD]-Morpholide; lactam N-11)	C (A compound having a KD ratio of 0.1 or more and less than 3 is denoted as C)	B (a compound having 3 or more and less than 10 is denoted as B)
CC[C@H](C)[C@@H]1NC(=O)[C@H](CC(C)C)N(C)C(=O)C[C@@H](C(=O)N2CCOCC2)N(C)C(=O)[C@H](C2CCCC2)N(C)C(=O)C2(CCCC2)NC(=O)[C@@H]2CCCN2C(=O)[C@H](CCc2ccc(C(F)(F)F)c(Cl)c2)NC(=O)CN(C)C(=O)[C@H](Cc2ccc(C)cc2)N(CC2CCC2)C(=O)CN(C)C(=O)CN(C)C1=O [PP0095] ([NMeL]I[Sar][Sar][X43][Sar][hPhe(3-Cl-4-CF3)]P[Ac5c][NMeGly(cPent)][NMeD]-Morpholide; lactam N-11)	C (A compound having a KD ratio of 0.1 or more and less than 3 is denoted as C)	C (A compound having a KD ratio of 0.1 or more and less than 3 is denoted as C)
CC[C@H](C)[C@@H]1NC(=O)[C@H](CC(C)C)N(C)C(=O)C[C@@H](C(=O)N2CCOCC2)N(C)C(=O)[C@H](C2CCCC2)N(C)C(=O)C2(CCCC2)NC(=O)[C@@H]2CCCN2C(=O)[C@H](CCc2ccc(C(F)(F)F)c(Cl)c2)NC(=O)CN(C)C(=O)[C@H](Cc2ccc(C)cc2)N(CC2CCCC2)C(=O)CN(C)C(=O)CN(C)C1=O [PP0096] ([NMeL]I[Sar][Sar][X29][Sar][hPhe(3-Cl-4-CF3)]P[Ac5c][NMeGly(cPent)][NMeD]-Morpholide; lactam N-11)	C (A compound having a KD ratio of 0.1 or more and less than 3 is denoted as C)	C (A compound having a KD ratio of 0.1 or more and less than 3 is denoted as C)
CC[C@H](C)[C@@H]1NC(=O)[C@H](CC(C)C)N(C)C(=O)C[C@@H](C(=O)N2CCOCC2)N(C)C(=O)[C@H](C2CCCC2)N(C)C(=O)C2(CCCC2)NC(=O)[C@@H]2CCCN2C(=O)[C@H](CCc2ccc(C(F)(F)F)c(Cl)c2)NC(=O)CN(C)C(=O)[C@H](Cc2ccc(C)cc2)N(CC2CCCCC2)C(=O)CN(C)C(=O)CN(C)C1=O [PP0097] ([NMeL]I[Sar][Sar][X27][Sar][hPhe(3-Cl-4-CF3)]P[Ac5c][NMeGly(cPent)][NMeD]-Morpholide; lactam N-11)	C (A compound having a KD ratio of 0.1 or more and less than 3 is denoted as C)	C (A compound having a KD ratio of 0.1 or more and less than 3 is denoted as C)
C=CCN1C(=O)CN(C)C(=O)CN(C)C(=O)[C@H]([C@@H](C)CC)NC(=O)[C@H](CC(C)C)N(C)C(=O)C[C@@H](C(=O)N2CCOCC2)N(C)C(=O)[C@H](C2CCCC2)N(C)C(=O)C2(CCCC2)NC(=O)[C@@H]2CCCN2C(=O)[C@H](CCc2ccc(C(F)(F)F)c(Cl)c2)NC(=O)CN(C)C(=O)[C@@H]1Cc1ccc(C)cc1 [PP0100] ([NMeL]I[Sar][Sar][X50][Sar][hPhe(3-Cl-4-CF3)]P[Ac5c][NMeGly(cPent)][NMeD]-Morpholide; lactam N-11)	B (a compound having 3 or more and less than 10 is denoted as B)	C (A compound having a KD ratio of 0.1 or more and less than 3 is denoted as C)
C=CCCN1C(=O)CN(C)C(=O)CN(C)C(=O)[C@H]([C@@H](C)CC)NC(=O)[C@H](CC(C)C)N(C)C(=O)C[C@@H](C(=O)N2CCOCC2)N(C)C(=O)[C@H](C2CCCC2)N(C)C(=O)C2(CCCC2)NC(=O)[C@@H]2CCCN2C(=O)[C@H](CCc2ccc(C(F)(F)F)c(Cl)c2)NC(=O)CN(C)C(=O)[C@@H]1Cc1ccc(C)cc1 [PP0101] ([NMeL]I[Sar][Sar][X48][Sar][hPhe(3-Cl-4-CF3)]P[Ac5c][NMeGly(cPent)][NMeD]-Morpholide; lactam N-11)	B (a compound having 3 or more and less than 10 is denoted as B)	C (A compound having a KD ratio of 0.1 or more and less than 3 is denoted as C)
CC[C@H](C)[C@@H]1NC(=O)[C@H](CC(C)C)N(C)C(=O)C[C@@H](C(=O)N2CCOCC2)N(C)C(=O)[C@H](C2CCCC2)N(C)C(=O)C2(CCCC2)NC(=O)[C@@H]2CCCN2C(=O)[C@H](CCc2ccc(C(F)(F)F)c(Cl)c2)NC(=O)CN(C)C(=O)[C@H](Cc2ccc(C)cc2)N(CCC(F)(F)F)C(=O)CN(C)C(=O)CN(C)C1=O [PP0103] ([NMeL]I[Sar][Sar][X41][Sar][hPhe(3-Cl-4-CF3)]P[Ac5c][NMeGly(cPent)][NMeD]-Morpholide; lactam N-11)	B (a compound having 3 or more and less than 10 is denoted as B)	C (A compound having a KD ratio of 0.1 or more and less than 3 is denoted as C)
CC[C@H](C)[C@@H]1NC(=O)[C@H](CC(C)C)N(C)C(=O)C[C@@H](C(=O)N2CCOCC2)N(C)C(=O)[C@H](C2CCCC2)N(C)C(=O)C2(CCCC2)NC(=O)[C@@H]2CCCN2C(=O)[C@H](CCc2ccc(C(F)(F)F)c(Cl)c2)NC(=O)CN(C)C(=O)[C@H](Cc2ccc(C)cc2)N(CCOC)C(=O)CN(C)C(=O)CN(C)C1=O [PP0104] ([NMeL]I[Sar][Sar][X12][Sar][hPhe(3-Cl-4-CF3)]P[Ac5c][NMeGly(cPent)][NMeD]-Morpholide; lactam N-11)	B (a compound having 3 or more and less than 10 is denoted as B)	C (A compound having a KD ratio of 0.1 or more and less than 3 is denoted as C)
CC[C@H](C)[C@@H]1NC(=O)[C@H](CC(C)C)N(C)C(=O)C[C@@H](C(=O)N2CCOCC2)N(C)C(=O)[C@H](C2CCCC2)N(C)C(=O)C2(CCCC2)NC(=O)[C@@H]2CCCN2C(=O)[C@H](CCc2ccc(C(F)(F)F)c(Cl)c2)NC(=O)CN(C)C(=O)[C@H](Cc2ccc(C)cc2)N(CCCOC)C(=O)CN(C)C(=O)CN(C)C1=O [PP0105] ([NMeL]I[Sar][Sar][X26][Sar][hPhe(3-Cl-4-CF3)]P[Ac5c][NMeGly(cPent)][NMeD]-Morpholide; lactam N-11)	B (a compound having 3 or more and less than 10 is denoted as B)	C (A compound having a KD ratio of 0.1 or more and less than 3 is denoted as C)
CCCCN1C(=O)[C@@H]2CCN2C(=O)[C@H](C)N(C)C(=O)[C@H]([C@@H](C)CC)NC(=O)[C@H](CC(C)C)N(C)C(=O)C[C@@H](C(=O)N2CCOCC2)N(C)C(=O)[C@H](C2CCCC2)N(C)C(=O)C2(CCCC2)NC(=O)[C@@H]2CCCN2C(=O)[C@H](CCc2ccc(C(F)(F)F)c(Cl)c2)NC(=O)CN(C)C(=O)[C@@H]1Cc1ccc(C(F)(F)F)cc1 [PP0106] ([NMeL]I[NMeA][Aze][X17][Sar][hPhe(3-Cl-4-CF3)]P[Ac5c][NMeGly(cPent)][NMeD]-Morpholide; lactam N-11)	C (A compound having a KD ratio of 0.1 or more and less than 3 is denoted as C)	B (a compound having 3 or more and less than 10 is denoted as B)
CC[C@H](C)[C@@H]1NC(=O)[C@H](CC(C)C)N(C)C(=O)C[C@@H](C(=O)N2CCOCC2)N(C)C(=O)[C@H](C2CCCC2)N(C)C(=O)C2(CCCC2)NC(=O)[C@@H]2CCCN2C(=O)[C@H](CCc2ccc(C(F)(F)F)c(Cl)c2)NC(=O)CN(C)C(=O)[C@H](Cc2ccc(C(F)(F)F)cc2)N(CC(C)C)C(=O)[C@@H]2CCN2C(=O)[C@H](C)N(C)C1=O [PP0107] ([NMeL]I[NMeA][Aze][X23][Sar][hPhe(3-Cl-4-CF3)]P[Ac5c][NMeGly(cPent)][NMeD]-Morpholide; lactam N-11)	C (A compound having a KD ratio of 0.1 or more and less than 3 is denoted as C)	C (A compound having a KD ratio of 0.1 or more and less than 3 is denoted as C)
